Data: publication PMC4492759, “Pharmacological profiling of the hemodynamic effects of cannabinoid ligands: a combined in vitro and in vivo approach” (Pharmacology Research & Perspectives, 2015)

How the values were obtained:
Type in all cases: biochemical
mouse CB1 = target: T1, mouse CB1 (Mus musculus, UniProt P47746); assay: [35S]-GTPγS binding, membranes of HEK293s cells transfected with mouse CB1; details: agonist mode; mean ± SEM, at least three experiments; read-out: CB1 EC50, Mouse
T1 construct: expressed in transfected cells; host or cells: HEK293s, transient transfection; membranes prepared
Description: (§1) Antagonist assays were performed similarly, with the addition of an EC80 concentration of CP55940 as a nonselective CB1/CB2 agonist in conjunction with the ligand to be tested. Nonspecific binding was determined in the presence of 20 μmol/L unlabeled GTPγS. The reaction was terminated by addition of ice-cold wash buffer (50 mmol/L Tris-HCl, 5 mmol/L MgCl2, 50 mmol/L NaCl; pH 7.4) followed by rapid filtration under vacuum through 96-well B-glass fiber filter plates (PerkinElmer, Waltham, Massachusetts, USA) using a Biomek FX (Beckman Coulter, Bromma, Sweden). The filter plates were dried (30 min at 50°C) before scintillation liquid (PerkinElmer) was added onto the filters and the bound radioactivity was determined using a scintillation counter (Wallac). Data were fitted with a four-parameter logistic fit using the equation y = A + (B − A)/1 + ((C/x)^D), where A is no activation, B is full activation, C is the EC50, and D is the Hill slope. All data were based on at least three independent experiments.

rat GPR55 [1] = target: T2, rat GPR55 (Rattus norvegicus, UniProt F1MAK4); assay: [35S]-GTPγS binding, membranes of HEK293s cells transfected with rat GPR55; details: agonist mode; mean ± SEM, at least three experiments; read-out: GPR55 EC50, Rat
T2 construct: expressed in transfected cells; host or cells: HEK293s, transient transfection; membranes prepared
T2 sequence (F1MAK4 1-319): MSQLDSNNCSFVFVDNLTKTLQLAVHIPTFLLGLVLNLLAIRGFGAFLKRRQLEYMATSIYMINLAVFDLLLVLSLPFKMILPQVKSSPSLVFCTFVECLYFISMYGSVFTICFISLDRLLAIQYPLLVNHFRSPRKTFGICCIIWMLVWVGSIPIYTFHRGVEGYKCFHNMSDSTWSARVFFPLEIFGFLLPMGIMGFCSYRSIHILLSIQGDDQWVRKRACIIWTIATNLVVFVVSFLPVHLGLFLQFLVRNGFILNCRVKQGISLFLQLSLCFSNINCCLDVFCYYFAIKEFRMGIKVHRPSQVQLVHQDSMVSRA
Description: as §1, with “HEK293s cells were transiently transfected with cDNA encoding rat or mouse CB1 or GPR55 and membranes were prepared as previously described (Ryberg et al. [2007]). In short, agonist activities in [^35S]-GTPγS binding assays were determined by the addition of ligand at 30°C for 45 min in membrane buffer [50 mmol/L NaCl, 5 mmol/L MgCl2, 0.5 mmol/L EDTA, 25 mmol/L HEPES (all Sigma, Gillingham, Dorset, UK); pH 7.4] containing 0.05 μg μL^−1 of membrane protein with 0.01% BSA, 25 μmol/L guanosine 5′-diphosphate (GDP), 100 μmol/L dithiothreitol (DTT), and 0.53 nmol/L [^35S]GTPγS (PerkinElmer) in a final volume of 200 μL. Antagonist” for “Antagonist”

rat GPR55 [2] = assay: as above; details: GTPγS binding, GPR55 activation
Description: as §1, with “HEK293s cells were transiently transfected with cDNA encoding rat or mouse CB1 or GPR55 and membranes were prepared as previously described (Ryberg et al. [2007]). In short, agonist activities in [^35S]-GTPγS binding assays were determined by the addition of ligand at 30°C for 45 min in membrane buffer [50 mmol/L NaCl, 5 mmol/L MgCl2, 0.5 mmol/L EDTA, 25 mmol/L HEPES (all Sigma, Gillingham, Dorset, UK); pH 7.4] containing 0.05 μg μL^−1 of membrane protein with 0.01% BSA, 25 μmol/L guanosine 5′-diphosphate (GDP), 100 μmol/L dithiothreitol (DTT), and 0.53 nmol/L [^35S]GTPγS (PerkinElmer) in a final volume of 200 μL. Antagonist” for “Antagonist”

rat CB1 = target: T3, rat CB1 (Rattus norvegicus, UniProt P20272); assay: [35S]-GTPγS binding, membranes of HEK293s cells transfected with rat CB1; details: agonist mode; mean ± SEM, at least three experiments; read-out: CB1 EC50, Rat
T3 construct: expressed in transfected cells; host or cells: HEK293s, transient transfection; membranes prepared
Description: as §1

T1 sequence (P47746 whole entry): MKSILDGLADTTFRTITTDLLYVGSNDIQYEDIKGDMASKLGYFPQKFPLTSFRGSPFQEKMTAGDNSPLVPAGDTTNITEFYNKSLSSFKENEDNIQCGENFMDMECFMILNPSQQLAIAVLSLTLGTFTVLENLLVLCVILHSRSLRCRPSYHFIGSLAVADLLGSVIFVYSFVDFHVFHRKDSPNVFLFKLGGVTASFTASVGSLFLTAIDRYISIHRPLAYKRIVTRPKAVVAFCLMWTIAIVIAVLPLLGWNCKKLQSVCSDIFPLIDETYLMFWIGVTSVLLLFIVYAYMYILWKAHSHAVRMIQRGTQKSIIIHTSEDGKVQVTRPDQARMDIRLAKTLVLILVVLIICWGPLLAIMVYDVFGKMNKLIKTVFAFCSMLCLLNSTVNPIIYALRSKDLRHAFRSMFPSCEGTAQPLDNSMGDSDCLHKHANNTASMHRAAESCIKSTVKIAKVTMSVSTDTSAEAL
T3 sequence (P20272 whole entry): as the sequence (P47746 whole entry) above, with D95E counted along it

What does the source list for C=C(C)[C@@H]1CCC(C)=C[C@H]1c1c(C)cc(O)cc1O [O-1602]?
EC50 (mouse CB1): > 30 µM; EC50 (rat GPR55 [1]): 0.02 ± 0.003 µM; potency at GPR55 relative to that of ACEA (rat GPR55 [2]): approximately 5 times; EC50 (rat CB1): > 30 µM
